# According to patent US5863950A, “HIV protease inhibitors” (Agouron Pharmaceuticals, Inc., priority 1994, dated 1999):
# Where “and” joins values, the source holds several entries; their conditions need not be identical. Equal values may be shown once. Read-outs that look alike come from different tables or passages of the source.
# Target: T1, HIV-1 protease (Human immunodeficiency virus type 1 group M subtype B, UniProt P04585)
# T1 construct: purified HIV-1 protease
# Assay: biochemical
# Type: biochemical
# Method: 1. Proteolytic activity of purified HIV-1 protease was routinely measured using the chromogenic assay developed by Richards et al. (J. Biol. Chem. 265: 7733 (1990)). Synthetic peptide His-Lys-Ala-Arg-Val-Leu-Phe (pNO2)-Glu-Ala-Nle-Ser-NH2 (American Peptide Company) was used as the substrate.
# 2. The assay was carried out in 0.5M NaCl, 50 mM MES pH 5.6, 2% DMSO (dimethylsulfoxide) at 37° C. Cleavage of the scissile bond between leucine and paranitro-phenylalanine (Phe(pNO2)) was assayed by spectrophotometric monitoring of the decrease in absorbance at 305 nm. Initial velocity was determined as the rate of decline of absorbance during the first 100 seconds of reaction.
# 3. […] Between 15-25 concentrations of inhibitor were added and velocity of reaction was measured at each of the concentrations, as described above.
# 4. Inhibition constants were calculated using the method of Jackson et al. (Adv. in Enzyme Regulation 22: 187 (1984)).
# [1] = 0.5M NaCl, 50 mM MES pH 5.6, 2% DMSO, 37° C., 200 μM substrate
SMILES,IC50 [1] [µM],further results
"CC(C)(C)NC(=O)[C@@H]1C[C@@H]2CCCC[C@@H]2CN1CC(O)CCc1ccccc1C(=O)N(CCO)C(C)(C)C (single isomer, unassigned) [Example 29]",55,–
"CC(C)(C)NC(=O)[C@@H]1C[C@@H]2CCCC[C@@H]2CN1CC(O)CCc1ccccc1C(=O)N(CCO)C(C)(C)C (single isomer, unassigned) [Example 30]",38,–
"CC(C)(C)NC(=O)c1c(CCC(O)Cc2ccc3ccccc3c2C(=O)NC(C)(C)C)ccc2ccccc12 (single isomer, unassigned) [Example 49]",–,IC50: 0.88 µM; Ki: 0.48 µM
CC(C)(C)NC(=O)c1c(CC(O)CCc2ccccc2C(=O)N(CCO)C(C)(C)C)ccc2ccccc12 (stereo not drawn) [Example 3],2.38,Ki [1]: 1.31 µM
Cc1ccc(CCC(O)Cc2ccccc2C(=O)N(CCO)C2(C)CCCC2)c(C(=O)N(CCO)C(C)(C)C)c1 (stereo not drawn) [Example 4],0.72,Ki [1]: 0.42 µM
CC(C)(C)N(CCO)C(=O)c1c(CCC(O)Cc2ccc3ccccc3c2C(=O)N(CCO)C(C)(C)C)ccc2ccccc12 (stereo not drawn) [Example 6],30,–
CC(C)(C)NC(=O)c1cc(C(C)(C)C)ccc1CCC(O)Cc1ccc2ccccc2c1C(=O)NC(C)(C)C (stereo not drawn) [Example 7],1.02,Ki [1]: 1.01 µM
CC(C)(C)NC(=O)c1cc(C(C)(C)C)ccc1CC[C@@H](O)Cc1ccc2ccccc2c1C(=O)NC(C)(C)C [Example 8],~20,–
CC(C)(C)NC(=O)c1cc2ccccc2cc1CCC(O)Cc1ccc2ccccc2c1C(=O)NC(C)(C)C (stereo not drawn) [Example 9],–,percent (inhibition) (at 20 (μM)): 40%
CC(C)(C)NC(=O)c1cc(C(C)(C)C)ccc1CCC(O)Cc1ccc(C(C)(C)C)cc1C(=O)NC(C)(C)C (stereo not drawn) [Example 10],15,–
CC(C)(C)NC(=O)c1cnccc1CC(O)CCc1ccc2ccccc2c1C(=O)NC(C)(C)C (stereo not drawn) [Example 11],18,–
CC(C)(C)NC(=O)c1ccccc1CCC(O)Cc1ccccc1C(=O)N(Cc1ccccc1)C(C)(C)C (stereo not drawn) [Example 13],–,percent (inhibition) (at 10 (μM)): 40%
CC(C)(C)NC(=O)c1c(CCC(O)Cc2ccc3ccccc3c2C(=O)N(CCO)C(C)(C)C)ccc2ccccc12 (stereo not drawn) [Example 14],5.6,Ki [1]: 5.4 µM
CC(C)(C)NC(=O)c1c(CCC(O)Cc2ccccc2-c2nccc3ccccc23)ccc2ccccc12 (stereo not drawn) [Example 16],–,percent (inhibition) (at 50 (μM)): 20%
CC(C)(C)NC(=O)c1ccccc1SCC(O)c1ccccc1C(=O)NC(C)(C)C (stereo not drawn) [Example 17],> 200,–
CC(C)(C)NC(=O)c1ccccc1C(O)CSc1ccccc1NC(=O)C(C)(C)C (stereo not drawn) [Example 21],–,percent (inhibition) (at 200 (μM)): 10%
CC(C)(C)NC(=O)c1ccccc1SCC(O)CN1CCCCC1C(=O)NC(C)(C)C (stereo not drawn) [Example 22],60,–
CC(C)(C)NC(=O)c1ccccc1CC(O)CSc1ccccc1C(=O)NC(C)(C)C (stereo not drawn) [Example 23],75 to 100,–
CC(C)(C)NC(=O)c1ccccc1CCC(O)Cc1ccccc1C(=O)NC(C)(C)C (stereo not drawn) [Example 25],18,–
CC(C)(C)NC(=O)c1ccccc1C#CC(O)Cc1ccccc1C(=O)NC(C)(C)C (stereo not drawn) [Example 26],> 200,–
CC(C)(C)NC(=O)c1ccccc1/C=C\C(O)Cc1ccccc1C(=O)NC(C)(C)C (stereo not drawn) [Example 27],–,percent (inhibition) (at 200 (μM)): 40%

SMILES,IC50 [1] [µM],further results
CC(C)(C)NC(=O)c1ccccc1/C=C/C(O)Cc1ccccc1C(=O)NC(C)(C)C (stereo not drawn) [Example 28],–,percent (inhibition) (at 200 (μM)): 40%
CC(C)(C)NC(=O)c1ccccc1CCC(O)CN1CCCCC1C(=O)NC(C)(C)C (stereo not drawn) [Example 31],–,percent (inhibition) (at 100 (μM)): 20% and 35%
CC(C)(C)NC(=O)c1c(CCC(O)CCc2ccc3ccccc3c2C(=O)NC(C)(C)C)ccc2ccccc12 [Example 32],7,–
CC(C)(C)N(CCO)C(=O)c1ccccc1CCC(O)CCc1ccccc1C(=O)N(CCO)C(C)(C)C [Example 33],6,–
CC(O)(CCc1ccccc1C(=O)NC(C)(C)C)Cc1ccccc1C(=O)NC(C)(C)C (stereo not drawn) [Example 34],–,percent (inhibition) (at 100 (μM)): 40%
CC(C)(C)NC(=O)c1cc(C(C)(C)C)ccc1CCC(O)Cc1ccccc1C(=O)N(CCO)C(C)(C)C (stereo not drawn) [Example 35],1.19,Ki [1]: 0.84 µM
CC(C)(C)NC(=O)c1ccccc1SCC(O)Cc1ccccc1C(=O)N(CCO)C(C)(C)C (stereo not drawn) [Example 36],25,–
CN(C)CCNC(=O)c1ccccc1CC(O)CSc1ccccc1C(=O)NCCN(C)C (stereo not drawn) [Example 37],> 500,–
CCNC(=O)c1ccccc1CC(O)CSc1ccccc1C(=O)NCCN(C)C (stereo not drawn) [Example 38],> 500,–
CN(C)CCNC(=O)c1ccccc1SCC(O)Cc1ccccc1C(=O)NC(C)(C)C (stereo not drawn) [Example 39],> 500,–
CN(C)CC(C)(C)CNC(=O)c1ccccc1SCC(O)Cc1ccccc1C(=O)NC(C)(C)C (stereo not drawn) [Example 40],> 500,–
COC(CSc1ccccc1C(=O)NC(C)(C)C)Cc1ccccc1C(=O)NC(C)(C)C (stereo not drawn) [Example 41],> 500,–
CC(C)(C)NC(=O)c1ccccc1CC(O)CSc1ccccc1C(=O)N1CCOCC1 (stereo not drawn) [Example 42],150 to 200,–
CC(C)(C)NC(=O)c1ccccc1CC(O)CSc1ccc([N+](=O)[O-])cc1C(=O)NC(C)(C)C (stereo not drawn) [Example 43],–,percent (inhibition) (at 200 (μM)): 20%
CC(C)(C)NC(=O)c1ccccc1CC(O)CSc1ccc(N)cc1C(=O)NC(C)(C)C (stereo not drawn) [Example 44],–,percent (inhibition) (at 200 (μM)): 20%
CC(C)(C)NC(=O)c1ccccc1CC(O)CSc1ccc(NC(=O)c2ccncc2)cc1C(=O)NC(C)(C)C (stereo not drawn) [Example 45],60,–
CC(C)(C)NC(=O)c1ccccc1CC(O)CSc1ccc(NCc2ccncc2)cc1C(=O)NC(C)(C)C (stereo not drawn) [Example 46],200,–
CC(C)(C)NC(=O)c1ccccc1CC(O)CSc1ccc2ccccc2c1C(=O)NC(C)(C)C (stereo not drawn) [Example 47],50,–
CC(C)N1CCC(CC(O)CCc2ccc3ccccc3c2C(=O)NC(C)(C)C)=C(C(=O)NC(C)(C)C)C1 (stereo not drawn) [Example 48],70,–
CC(C)(C)NC(=O)c1ccccc1NCC(O)Cc1ccc2ccccc2c1C(=O)NC(C)(C)C (stereo not drawn) [Example 50],120,–
CC(C)(C)NC(=O)c1ccccc1NCC(O)Cc1ccc2ccccc2c1C(=O)NC(C)(C)C (stereo not drawn) [Example 51],120,–

SMILES,IC50 [1] [µM],further results
CC(C)(C)NC(=O)c1ccccc1SCC(O)Cc1ccc2ccccc2c1C(=O)NC(C)(C)C (stereo not drawn) [Example 52],25,–
CN(C(=O)c1ccccc1CCC(O)Cc1ccccc1C(=O)N(C)C(C)(C)C)C(C)(C)C (stereo not drawn) [Example 55],6.3,–
CC(C)(C)NC(=O)c1ccccc1CC(O)C(O)Cc1ccccc1C(=O)NC(C)(C)C (stereo not drawn) [Example 56],64,Ki [1]: 56 µM
CC(C)(C)NC(=O)c1ccccc1CCC(O)C(O)CCc1ccccc1C(=O)NC(C)(C)C (stereo not drawn) [Example 57],–,percent (inhibition) (at 200 (μM)): 93%
CC(C)(C)N(CCO)C(=O)c1ccccc1CC(O)C(O)Cc1ccccc1C(=O)N(CCO)C(C)(C)C (stereo not drawn) [Example 58],9.6,Ki [1]: 7.7 µM
CN(C(=O)c1c(CC(O)CCc2ccc3ccccc3c2C(=O)NC(C)(C)C)ccc2c1CNCC2)C(C)(C)C (stereo not drawn) [Example 59],–,percent (inhibition) (at 100 (μM)): 20%
CC(C)(C)NC(=O)c1cc2ccccc2cc1CCC(O)Cc1ccccc1C(=O)N(CCO)C(C)(C)C (stereo not drawn) [Example 60],4.1,Ki [1]: 2.7 µM
CC(C)(C)N(CCO)C(=O)c1ccccc1CCC(O)Cc1ccccc1C(=O)N(CCO)C(C)(C)Cc1ccccc1 (stereo not drawn) [Example 61],1.33,Ki [1]: 1.27 µM
CC(=O)N1CCc2ccc(CC(O)CCc3ccc4ccccc4c3C(=O)NC(C)(C)C)c(C(=O)N(C)C(C)(C)C)c2C1 (stereo not drawn) [Example 63],–,percent (inhibition) (at 200 (μM)): 40%
CC(C)(C)N(CCO)C(=O)c1ccccc1CCC(O)Cc1ccccc1C(=O)N(Cc1ccccc1)C(C)(C)C (stereo not drawn) [Example 64],8.3,Ki [1]: 7.9 µM
CC(C)(C)NC(=O)c1c(CCC(O)Cc2ccccc2C(=O)N(Cc2nc3ccccc3[nH]2)C(C)(C)C)ccc2ccccc12 (stereo not drawn) [Example 67],–,percent (inhibition) (at 10 (μM)): 40%
CC(C)(C)N(CCO)C(=O)c1ccccc1CCC(O)Cc1ccccc1C(=O)N(c1ccccc1)C(C)(C)C (stereo not drawn) [Example 68],11.9,Ki [1]: 5.8 µM
CC(C)(C)NC(=O)c1c(CCC(O)Cc2ccccc2C(=O)N(c2ccccc2)C(C)(C)C)ccc2ccccc12 (stereo not drawn) [Example 69],–,percent (inhibition) (at 10 (μM)): 40%
CC(C)(C)N(CCO)C(=O)c1ccccc1CCC(=O)C(F)c1ccccc1C(=O)N(CCO)C(C)(C)c1ccccc1 (stereo not drawn) [Example 70],9,–
CC(C)(C)N(CCO)C(=O)c1ccccc1CCC(O)C(F)c1ccccc1C(=O)N(CCO)C(C)(C)c1ccccc1 (stereo not drawn) [Example 71],1.3,Ki [1]: 0.879 µM
CC(C)(C)N(CCCO)C(=O)c1ccccc1CCC(O)Cc1ccccc1C(=O)N(CCOCCN1CCOCC1)C(C)(C)c1ccccc1 (stereo not drawn) [Example 75],8,–
CC(C)(C)N(CCO)C(=O)c1ccccc1CCC(O)Cc1ccccc1C(=O)N(CCOCc1ccccc1)C(C)(C)c1ccncc1 (stereo not drawn) [Example 76],1.74,Ki [1]: 0.92 µM
CC(C)(C)N(CCO)C(=O)c1ccccc1CCC(O)C(F)(F)c1ccccc1C(=O)N(CCO)C(C)(C)c1ccccc1 (stereo not drawn) [Example 79],3.5,Ki [1]: 3.2 µM
CC(C)(C)N(CCO)C(=O)c1ccccc1CC(O)CSc1ccccc1C(=O)N(CCO)C(C)(C)C (stereo not drawn) [Example 85],36,Ki [1]: 18.4 µM
Cc1ccc(CC(O)CCc2ccccc2C(=O)N(Cc2ccccc2)C(C)C)c(C(=O)N(CCO)C(C)(C)c2ccccc2)c1 (stereo not drawn) [Example 86],0.448,Ki [1]: 0.379 µM
CCc1ccc(CC(O)CCc2ccccc2C(=O)N(CCOCc2ccccc2)C(C)(C)c2ccccc2)c(C(=O)N(CCO)C(C)(C)c2ccccc2)c1 (stereo not drawn) [Example 88],0.23,Ki [1]: 0.075 µM
